{"source": "patent US20090306058A1", "about": "“Sulphone Derivatives for Treatment of Cancer” (priority 2005, published 2009)", "tested_on": "Cells expressing Notch (ALL-SIL, DND-41, HPB-ALL or TALL-1)", "assay": "Assay for Cell Cycle Arrest", "assay_type": "cell-based", "details": "concentrations up to 10 μM, incubation typically 4-8 days, in comparison to untreated controls", "description": "Cells expressing Notch (ALL-SIL, DND-41, HPB-ALL or TALL-1) (Weng et al, Science, 306 (2004), 269-71) were incubated in the presence or absence of a compound of the instant invention (e.g. the compound of Examples 2 and 7 below) at concentrations up to 10 μM. At the end of the incubation (typically 4-8 days), the cells were collected, fixed in 70% ethanol on ice for >2 hours, washed, then labelled for 15 min at 37° C. with propidium iodide (0.2 mg/ml) (PI) in the presence of 0.1% Triton X100 and 0.2 mg/ml RNase and subjected to FACS analysis."}
{"compound": "CC[C@@H]1C[C@H]2C[C@@](c3cc(F)ccc3F)(S(=O)(=O)c3ccc(C(F)(F)F)cc3)CC[C@H]2NS1(=O)=O", "note": "[Example 2, (3R,4aS,6S,8aR)-6-(2,5-difluorophenyl)-3-ethyl-6-{[4-(trifluoromethyl)phenyl]sulfonyl}octahydro-1H-2,1-benzothiazine 2,2-dioxide]", "values": [{"measurement": "cell cycle populations by FACS (propidium iodide)", "result": "severe loss of G2- and S-phase populations"}]}
